Results published in patent US9675591B2, “Methods for treating seizure disorders and pain” (THE REGENTS OF THE UNIVERSITY OF CALIFORNIA, priority 2013, dated 2017).
“Also recorded” adds a separate entry of the source. Like-named read-outs stand apart in the source and are kept apart here.

Columns and labels:
[1] = test system: pentylenetetrazole-induced seizures; experiment: Subcutaneous Metrazol seizure test (scMET); format: in vivo
Protocol: A dose of subcutaneous pentylenetetrazole (Metrazole, MET) which induces convulsions in 97% of animals (CD97: 85 mg/kg mice or 56.4 mg/kg rats) was injected into a loose fold of skin at the neck. Animals were placed in isolation cages and observed for 30 min for the occurrence of clonic spasms persisting for at least 5 s.

[2] = Motor toxicity, horizontal screen test in mice; format: in vivo; conditions: in vivo, ip, i.p. as solution, 10 min time point, read-out: TD50, neurological impairment (horizontal screen)
Protocol: (§1) Abnormal neurological status in mice following SKA-19 administration was evaluated with the rotorod test. When a normal mouse is placed on a rod 1 inch in diameter that rotates at a speed of 6 rpm, the mouse can maintain equilibrium for a long time. Inability of the mouse to stay on the rotating rod in three trials for 1 min is taken as an indication of motor impairment. […] Mice were placed on a horizontally oriented grid (consisting of parallel 1.5-mm diameter rods situated 1 cm apart), and the grid was inverted. Animals that fell from the grid within 10 s were scored as impaired.
(§2) The mouse maximal electroshock (MES) and 6 Hz seizure models were used. Motor toxicity was assessed using a modification of the horizontal screen test. ED50 values in the seizure models and TD50 values in the toxicity test were determined by nonlinear fitting of dose-response curves. […] Drugs solutions were injected intraperitoneally 10 min prior to administration of the electrical stimulus in a volume of 10 ml/kg body weight.

mice = experiment: Motor toxicity, horizontal screen test in mice; format: in vivo; conditions: i.p. as solution, 10 min time point
Protocol: as §1, §2

sound-induced seizures = experiment: Frings audiogenic seizure (AGS)-susceptible mouse model; format: in vivo, mice; conditions: ip, 2 h, read-out: ED50, protection from sound induced seizures
Protocol: Frings audiogenic seizure (AGS)-susceptible mice are genetically susceptible to sound-induced seizures (Frings et al., 1953). A colony of AGS mice is maintained by the ASP at the University of Utah. Groups of 8 female mice (weighing 18-25 g) were treated i.p. with increasing doses of SKA-19. At the TPE in the MES test, mice were exposed to a sound stimulus of 110 decibels (11 KHz) delivered for 20 s.

[3] = Pharmacokinetics in Sprague-Dawley rats; format: in vivo
CA1 pyramidal neurons = experiment: Hippocampal slice recordings; format: cell-based, mouse; conditions: for effect on AP firing: 1-s 150-pA current injection
Protocol: Brain slice preparation was approved by the University of California, Irvine, Institutional Animal Care and Use Committee. Male C57BL/6 J mice (postnatal day 23) were anesthetized with halothane, decapitated, and brains transferred to an ice-cold, sucrose artificial cerebral spinal fluid (ACSF; Sigma-Aldrich). Hippocampal slices (300 μm) were prepared using a Leica VT1200S vibrating blade microtome (Leica Microsystems Inc., Buffalo Grove, Ill.). Slices were incubated at 33° C. in oxygenated (95% O2, 5% CO2) standard ACSF containing the following (mM) for at least 1 h before recordings: 126 NaCl, 2.5 KCl, 1.25 NaHPO4, 1.2 MgSO4, 10 glucose, 1.2 CaCl2, and 26 NaHCO3. Slices were submerged and continuously perfused at 2 ml/min with oxygenated ACSF at 33° C. during the current-clamp experiments. Voltage-clamp experiments were performed in the same ACSF but with 1 mM tetraethylammonium chloride (Sigma-Aldrich) and 0.5 μM tetrodotoxin (Sigma-Aldrich) added. Pyramidal CA1 neurons were visualized and identified with an upright microscope (Zeiss Axioskop Plus; Zeiss Jena, Germany) with infrared differential interference contrast optics. Recording pipettes (2-5 MΩ) were filled with intracellular solution containing (in mM): 126 K-gluconate; 4 KCl; 10 HEPES; 2 Mg-adenosine triphosphate; 0.3 Tris-guanosine triphosphate; 10 phosphocreatine, pH 7.20, 270-290 mOsm. In the current-clamp mode, depolarizing current pulses were applied from a membrane potential of −65 mV to evoke tonic firing activity. In the voltage-clamp mode, neurons were held at −55 mV and KCa currents elicited by 50-ms voltage steps to 10 mV, applied every 10 s. SKA-19 or NS309 were perfused for 10 min into the bath to allow for equilibrium. Recordings were performed in the whole-cell mode using a MultiClamp 700B amplifier (Molecular Devices), […] and sampled at 20 kHz with a Digidata 1322A digitizer (Molecular Devices). Data were acquired and analyzed with pClamp 10.2 software (Molecular Devices).

Nav1.4 = Nav1.4 (Homo sapiens (Human), UniProt P35499); experiment: Voltage-clamp, Nav1.4 in HEK-293 cells; format: cell-based
Protocol: All experiments were conducted at room temperature (22-24° C.) with an EPC-10 amplifier and Pulse software (HEKA, Lambrecht/Pfalz, Germany) in the whole-cell mode of the patch-clamp technique. Human embryonic kidney (HEK)-293 cell lines stably expressing hNav1.1, hNav1.5, hNav1.7 channels (generously provided by Dr. Christopher Lossin, University of California Davis), hNav1.4 (Frank Lehmann-Horn, University of Ulm), or hKv2.1 channels (James Trimmer, University of California Davis) were bathed in extracellular solution containing (in mM): 160 NaCl; 4.5 KCl; 1 MgCl2; 2 CaCl2; 10 HEPES [pH was adjusted to 7.4 using NaOH (310 mOsm)]. Pipettes were filled with intracellular solution containing (in mM): 145 KF; 2 MgCl2; 10 ethylene glycol tetraacetic acid; 10 HEPES (pH adjusted to 7.2 with KOH; 300 mOsm). Neuroblastoma N1E-115 cells (ATCC, Manassa, Va., USA) expressing Nav1.2 were patched with a CsF internal solution consisting of (in mM): 10 NaF; 110 CsF; 20 CsCl; 2 ethylene glycol tetraacetic acid; 10 HEPES (CsOH to pH 7.35; 300 mOsm). All pipette tip resistances were 2-4 MΩ. Series resistances of 3-10 MΩ were compensated 40-80%. All cells were voltage-clamped to a holding potential of −90 mV unless otherwise specified. The sampling frequency was 5 kHz. Na^+ currents were elicited by 30-ms pulse to 0 mV from −90 mV applied every 10 s. […]

Chain of Nav1.4 (P35499 whole entry): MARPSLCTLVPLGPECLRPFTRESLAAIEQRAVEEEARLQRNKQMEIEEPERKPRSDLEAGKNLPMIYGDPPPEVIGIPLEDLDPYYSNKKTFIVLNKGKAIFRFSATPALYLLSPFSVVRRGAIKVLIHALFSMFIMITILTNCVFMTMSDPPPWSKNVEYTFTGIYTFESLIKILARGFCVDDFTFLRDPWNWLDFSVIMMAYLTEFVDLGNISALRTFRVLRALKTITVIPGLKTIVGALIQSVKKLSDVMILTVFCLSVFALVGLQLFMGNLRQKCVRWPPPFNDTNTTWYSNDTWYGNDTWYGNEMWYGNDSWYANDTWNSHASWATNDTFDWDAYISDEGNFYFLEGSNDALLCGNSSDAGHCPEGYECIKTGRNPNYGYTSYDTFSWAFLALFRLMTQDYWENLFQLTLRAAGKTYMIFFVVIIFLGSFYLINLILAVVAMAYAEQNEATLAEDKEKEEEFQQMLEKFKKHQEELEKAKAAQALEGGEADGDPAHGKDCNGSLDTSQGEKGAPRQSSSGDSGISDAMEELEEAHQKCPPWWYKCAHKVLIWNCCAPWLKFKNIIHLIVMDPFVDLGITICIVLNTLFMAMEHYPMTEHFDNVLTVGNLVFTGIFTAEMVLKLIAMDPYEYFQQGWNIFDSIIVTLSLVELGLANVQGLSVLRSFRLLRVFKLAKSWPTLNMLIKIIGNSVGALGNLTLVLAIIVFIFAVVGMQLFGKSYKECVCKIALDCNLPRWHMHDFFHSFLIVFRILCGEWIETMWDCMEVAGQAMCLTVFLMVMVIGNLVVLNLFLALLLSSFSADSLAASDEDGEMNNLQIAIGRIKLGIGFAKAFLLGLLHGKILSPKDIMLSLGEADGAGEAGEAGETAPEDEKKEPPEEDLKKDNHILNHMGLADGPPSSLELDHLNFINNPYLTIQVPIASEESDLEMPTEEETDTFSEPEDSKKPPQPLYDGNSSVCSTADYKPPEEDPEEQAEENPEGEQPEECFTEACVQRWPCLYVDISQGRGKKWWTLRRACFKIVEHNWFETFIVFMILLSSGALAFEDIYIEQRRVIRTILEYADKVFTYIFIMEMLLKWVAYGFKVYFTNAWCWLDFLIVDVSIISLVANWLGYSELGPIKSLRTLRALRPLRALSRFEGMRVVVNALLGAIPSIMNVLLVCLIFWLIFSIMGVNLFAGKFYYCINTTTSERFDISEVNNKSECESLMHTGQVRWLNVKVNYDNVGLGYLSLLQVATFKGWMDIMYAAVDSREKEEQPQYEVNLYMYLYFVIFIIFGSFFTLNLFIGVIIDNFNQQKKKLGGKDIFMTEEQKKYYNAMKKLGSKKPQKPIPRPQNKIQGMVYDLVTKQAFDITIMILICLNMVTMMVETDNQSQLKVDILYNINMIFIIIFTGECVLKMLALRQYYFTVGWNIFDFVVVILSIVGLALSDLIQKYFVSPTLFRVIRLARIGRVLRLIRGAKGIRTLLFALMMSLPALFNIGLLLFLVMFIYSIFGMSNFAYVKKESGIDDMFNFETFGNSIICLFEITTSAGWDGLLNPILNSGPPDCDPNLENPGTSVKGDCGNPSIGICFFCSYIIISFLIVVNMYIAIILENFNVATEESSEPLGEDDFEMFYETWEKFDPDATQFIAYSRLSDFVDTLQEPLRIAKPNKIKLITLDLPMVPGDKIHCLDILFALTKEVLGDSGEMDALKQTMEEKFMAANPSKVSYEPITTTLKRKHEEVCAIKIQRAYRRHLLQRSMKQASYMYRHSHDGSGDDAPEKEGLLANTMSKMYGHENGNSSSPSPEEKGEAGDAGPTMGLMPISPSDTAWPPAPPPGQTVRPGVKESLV

Q: For `Nc1nc2ccc(SC(F)(F)F)cc2s1` [SKA-19, 6-((trifluoromethyl)thio)benzo[d]thiazol-2-amine], which “death in the scMET test” value ([1]; 300 mg/kg) is on record?
A: one animal treated with 300 mg/kg died

Q: What about the “protection in the scMET test” value ([1]; 30 and 100 mg/kg) of the same compound?
A: did not provide any protection

Q: What about the “activity in the scMET test” value ([1]; mouse, in vivo) of the same compound?
A: no significant activity

Q: And the TD50 at 10 min ([2]; CF-1, mouse)?
A: 16.1 mg/kg

Q: And the TD50 at 10 min ([2]; mouse)?
A: 16.1 mg/kg

Q: What about the “TD50, neurological impairment (horizontal screen)” value (mice) of the same compound?
A: 16.33 mg/kg

Q: And the ED50 (sound-induced seizures)?
A: 2.15 mg/kg

Q: What about the oral availability ([3]; 10 mg/kg, both vehicles (solution and methylcellulose suspension)) of the same compound?
A: roughly 30%

Q: What about the “penetration into tissues (brain, heart, spleen, liver)” value ([3]; 2 h after i.p. 10 mg/kg) of the same compound?
A: very effective at penetrating into tissues

Q: What about the peak plasma concentration ([3]; gavage 10 mg/kg, suspension in methylcellulose) of the same compound?
A: 1.6 ± 0.6 µM

Q: And the Kp at 2 h ([3]; male, Sprague-Dawley, rat, brain, ip, 10 mg/kg i.p., 2 h, read-out: brain to plasma concentration ratio)?
A: ~3

Q: And the concentration at 2 h ([3]; male, Sprague-Dawley, rat, plasma, intraperitoneal, 10 mg/kg i.p., 2 h, read-out: plasma concentration)?
A: 4.6 ± 1.3 µM

Q: What about the concentration at 2 h ([3]; male, Sprague-Dawley, rat, plasma, intraperitoneal, 30 mg/kg i.p., 2 hours, read-out: total plasma concentration) of the same compound?
A: 12 ± 2.21 µM

Q: And the concentration at 4 h ([3]; male, Sprague-Dawley, rat, plasma, intraperitoneal, 30 mg/kg i.p., 4 hours, read-out: total plasma concentration)?
A: 13.1 ± 2.67 µM

Q: What about the half-life ([3]; male, Sprague-Dawley, rat, plasma, iv, 10 mg/kg, rats, i.v. 10 mg/kg in cremophor EL/PBS, read-out: elimination half-life t1/2 (converted)) of the same compound?
A: 2.2 h

Q: What about the concentration at 8 h ([3]; male, Sprague-Dawley, rat, plasma, oral solution 10 mg/kg, at 8 h) of the same compound?
A: 0.4 µM

Q: And the oral availability ([3]; methylcellulose suspension as used by the ASP)?
A: about 50%

Q: What about the plasma concentration ([3]; oral solution 10 mg/kg, for 5 h) of the same compound?
A: around 1 μM

Q: And the sedation ([3]; rats, 30 mg/kg i.p., recovered without weight loss at 24 h)?
A: prolonged sedation

Q: And the “elimination half-life t1/2” value ([3]; rats, i.v. 10 mg/kg in cremophor EL/PBS)?
A: 2.16 ± 0.023 h

Q: What about the “effect on AP firing” value (CA1 pyramidal neurons; 1 μM) of the same compound?
A: slowed down AP firing

Q: What about the “reduction of the number of spikes” value (CA1 pyramidal neurons; 10 μM, all injected current levels) of the same compound?
A: roughly 50%

Q: And the “after-hyperpolarization amplitude of individual APs” value (CA1 pyramidal neurons; 10 μM, current-clamp)?
A: increase in after-hyperpolarization amplitude

Q: And the “effect on AP firing” value (CA1 pyramidal neurons; 25 μM)?
A: completely suppressed

Q: What about the mAHP current amplitude (CA1 pyramidal neurons; voltage-clamp, 10 μM) of the same compound?
A: modest but significant increase; also recorded: increases the amplitude

Q: And the “block of Nav1.4” value (Nav1.4)?
A: low micromolar range

Q: What about the IC50 (Nav1.4; read-out: EC50 or IC50, Nav1.4) of the same compound?
A: 4.5 ± 2.7 µM
